Where two headings read alike, the source gives them in different places.
Tests used:
168 GPCRs = assay: β-arrestin based GPCR screen (PathHunter / GPCRmax), agonist mode; format: cell-based
Experimental: For agonist determination, cells were incubated with sample to induce response. […] Vehicle concentration was 1%.

[1] = cited from earlier work
[2] = test system: gene expression in amygdala, frontal cortex, hippocampus; assay: RNA-sequencing of brain areas after a single dose; format: in vivo, rat; details: 10 mg/kg IP each
rats = assay: Open field test (OFT); format: in vivo, rat; details: for time spent in the center of the open field vs. vehicle: single dose 5 or 15 mg/kg IP (text), 5-30 mg/kg (FIG. 11A), 30 minutes before testing
Experimental: This behavioral assay, also widely used as an anxiety paradigm, capitalizes on a rodent's innate fear of brightly lit open spaces, which are assumed to induce fear or anxiety. Rodents spend more time hugging the walls of the open field during the test, and these effects correlate to underlying brain regions and mechanisms.
Method: Consecutive beam breaks and/or video-tracking of time spent in the center versus periphery of the open field are measured. Also measured are parameters such as distance traveled and ambulatory activity (horizontal and vertical) for the duration of the test session.
The open field test (OFT) capitalizes on a rodent's innate fear of open spaces to assess anxiety-like behavior. More time spent in the center of an open field reflects an anxiolytic (anti-anxiety) effect.
Locomotor activity was also measured in the OFT.
To investigate whether MBDB has an anti-anxiety (anxiolytic) effect, rats were dosed with MBDB (0.5-30 mg/kg, IP) or vehicle (saline) and 30-minutes later were tested in the open field for 30 minutes. This anxiety test capitalizes on a rodents' innate fear of wide-open spaces and propensity to hug the walls when placed into the open field. Therefore, a drug that increases the time spent in the center of the open field has anxiolytic activity and predicts utility for treating anxiety in humans.

5HT2C receptor [3] = target: T1, 5HT2C receptor (Homo sapiens, UniProt P28335); assay: GPCRmax screen, antagonist mode; format: cell-based
T1 construct: beta-galactosidase enzyme fragment (PathHunter complementation tag); host or cells: PathHunter cell lines

5HT5A = target: T2, 5HT5A (Homo sapiens, UniProt P47898); assay: GPCRmax screen, agonist mode; format: cell-based
T2 construct: beta-galactosidase enzyme fragment (PathHunter complementation tag); host or cells: PathHunter cell lines

C57BL/6J mice = assay: Mouse head-twitch response (HTR) test; format: in vivo; details: i.p., any dose tested, HTR measured for 10 minutes
Experimental: Head twitch response (HTR) was evaluated using C57BL/6J mice (ages 7-10 weeks), Mice were ear tagged at least three days after arrival to the animal facility and allowed to rest for at least three days before behavioral testing. Small magnets (SuperMagnetMan—N45 magnet 3 mm diameter, 0.5 mm thickness) were glued to ear tags (Stoelting—La Pias Aluminum Ear Tags) at least two days before mice were ear tagged. The experimental setup was adapted from Gonzales-Maeso (de la Fuente Revenga et al., 2019) and Kwan (Jefferson et al., 2022; Savalia et al., 2021), including experimental apparatus and MATLAB code for analysis.
Doses were randomly assigned, and age-matched controls were injected with vehicle and randomly interspersed with drug conditions. At least three animals per sex were used for each drug dose and condition. If animals were used in multiple HTR experiments, experimental sessions took place at least one week apart. Two animals were run at a time. Immediately after i.p. injection of psychedelic or entactogen drug, animals were placed in separate plastic boxes within a larger chamber (Home Depot—28 in. W×32 in. H×21.5 in. D), and HTR was measured for 10 minutes. A small lamp was placed in the back of the larger chamber, and a high-speed camera (Basler—Aca 1920-155 μm) was suspended from the ceiling to record video of the animals in the plastic boxes. […]

[4] = cited from earlier work; remark: listed apart in the source
[5] = target: serotonin transporter (SERT) (Rattus norvegicus, UniProt P31652); assay: [3H]5HT uptake saturation in rat brain synaptosomes with or without methylone; format: biochemical; details: two concentrations of methylone
5HT2C receptor [6] = target: T1, 5HT2C receptor; assay: GPCRmax screen, agonist mode; format: cell-based
[7] = across oral doses of 50 mg to 200 mg

T2 sequence (P47898 whole entry, the tested form may be a part): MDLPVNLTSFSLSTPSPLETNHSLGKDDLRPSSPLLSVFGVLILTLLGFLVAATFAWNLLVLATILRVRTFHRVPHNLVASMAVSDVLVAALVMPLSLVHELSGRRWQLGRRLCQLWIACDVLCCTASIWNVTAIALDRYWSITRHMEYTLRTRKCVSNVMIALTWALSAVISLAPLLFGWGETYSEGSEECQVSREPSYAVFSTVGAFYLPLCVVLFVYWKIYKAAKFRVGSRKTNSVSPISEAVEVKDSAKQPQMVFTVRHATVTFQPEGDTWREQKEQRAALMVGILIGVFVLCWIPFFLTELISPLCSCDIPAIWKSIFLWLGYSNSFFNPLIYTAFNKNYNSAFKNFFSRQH
T1 sequence (P28335 33-458): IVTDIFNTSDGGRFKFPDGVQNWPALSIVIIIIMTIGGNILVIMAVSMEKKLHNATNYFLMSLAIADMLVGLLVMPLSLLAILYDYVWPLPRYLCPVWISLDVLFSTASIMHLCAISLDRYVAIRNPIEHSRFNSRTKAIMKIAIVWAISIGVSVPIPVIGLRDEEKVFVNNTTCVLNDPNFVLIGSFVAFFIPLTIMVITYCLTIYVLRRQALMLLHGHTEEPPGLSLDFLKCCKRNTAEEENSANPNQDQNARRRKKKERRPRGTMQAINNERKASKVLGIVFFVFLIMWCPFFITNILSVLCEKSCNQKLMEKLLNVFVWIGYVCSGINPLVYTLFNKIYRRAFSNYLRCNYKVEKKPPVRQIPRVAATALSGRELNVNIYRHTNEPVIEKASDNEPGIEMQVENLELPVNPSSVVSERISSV
serotonin transporter (SERT), sequence (P31652 whole entry): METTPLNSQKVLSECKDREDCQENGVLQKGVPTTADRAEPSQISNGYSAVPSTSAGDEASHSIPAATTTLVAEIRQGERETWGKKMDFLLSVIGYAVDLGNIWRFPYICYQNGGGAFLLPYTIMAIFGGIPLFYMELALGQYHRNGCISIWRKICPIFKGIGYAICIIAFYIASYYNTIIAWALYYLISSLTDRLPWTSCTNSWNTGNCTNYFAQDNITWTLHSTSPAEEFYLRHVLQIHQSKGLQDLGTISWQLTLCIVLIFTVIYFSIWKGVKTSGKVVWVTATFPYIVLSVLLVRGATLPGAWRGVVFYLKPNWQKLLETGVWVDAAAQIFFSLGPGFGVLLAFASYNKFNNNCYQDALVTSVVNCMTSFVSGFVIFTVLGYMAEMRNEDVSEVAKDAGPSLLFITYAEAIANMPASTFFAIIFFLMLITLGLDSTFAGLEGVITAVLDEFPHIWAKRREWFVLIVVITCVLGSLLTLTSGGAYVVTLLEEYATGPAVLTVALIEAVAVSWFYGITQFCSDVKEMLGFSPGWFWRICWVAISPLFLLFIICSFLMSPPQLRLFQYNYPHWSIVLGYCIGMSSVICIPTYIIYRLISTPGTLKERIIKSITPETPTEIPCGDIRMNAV

CNC(C)C(=O)c1ccc2c(c1)OCO2 (centres unmarked) [methylone, 3,4-methylenedioxy-N-methylcathinone]
agonist activity at any of the 168 GPCRs (criterion >30% activity) (168 GPCRs; 1 and 10 micromolar): did not meet criteria for agonist or antagonist activity
% Activity (168 GPCRs; DRD2S, Agonist mode, 10 uM): 0.6%
% Activity (168 GPCRs; DRD2S, Agonist, 1 uM): 0%
% Activity (168 GPCRs; NPSR1b, Agonist mode, 10 uM): 4.8%
% Activity (168 GPCRs; NPSR1b, Agonist, 1 uM): −1.3%
half-life [1, 7]: 6 to 7 h
time to reach maximum concentrations (Tmax) [1, 7]: 1 to 2 h
AUC10 hr, geometric mean ([1]; oral 50 mg, N = 3): 725 ng·h/mL
Tmax, median ([1]; oral 50 mg, N = 3): 1.5 h
Cmax, geometric mean ([1]; oral 100 mg, N = 6): 283.9 ng/mL
Half-life, geometric mean ([1]; oral 100 mg, N = 6): 6.0 h
Tmax, median ([1]; oral 100 mg, N = 6): 2.5 h
AUC24 hr, geometric mean ([1]; oral 150 mg, N = 5): 3165 ng·h/mL
AUCinf, geometric mean ([1]; oral 150 mg, N = 5): 3509 ng·h/mL
Tmax, median ([1]; oral 150 mg, N = 5): 2 h
Half-life, geometric mean ([1]; oral 200 mg, N = 7): 6.5 h
Tmax, median ([1]; oral 200 mg, N = 7): 2 h
genes regulated by methylone that are also regulated by MDMA, amygdala [2]: 87%
locomotor activity (OFT) vs. vehicle (rats; methylone 5 mg/kg): no effect
locomotor activity (OFT) vs. vehicle (rats; methylone 15 or 30 mg/kg): significant increase in locomotor activity
time spent in the center of the open field vs. vehicle (rats): significantly increases the time spent in the center
time spent in the center of the open field vs. vehicle (rats; listed as Methylone): significantly increased center time
antagonist activity (% inhibition) (5HT2C receptor [3]; 1 or 10 mM, threshold 50%): no agonist or antagonist activity
activity at 10 µM (5HT2C receptor [3]; HTR2C, Antagonist mode, 10 uM): 24.2%
activity at 1 µM (5HT2C receptor [3]; HTR2C, Antagonist, 1 uM): 21.1%
agonist % activity, greatest activity detected (5HT5A; 1 or 10 mM, threshold 30%): 13.9%
activity at 10 µM (5HT5A; HTR5A, Agonist mode, 10 uM): 13.9%
activity at 1 µM (5HT5A; HTR5A, Agonist, 1 uM): 13.6%
head-twitch behaviors (C57BL/6J mice): no effect on head-twitch behaviors at any dose tested
head-twitch behaviors (C57BL/6J mice; listed as Methylone): no hallucinogenic activity
time to peak brain and serum concentration ([4]; rats, intraperitoneal administration): 15 to 30 min
half-life shorter than MDMA ([4]; relative to MDMA): > 50%
type of interaction at the SERT ([5]; [3H]5HT saturation curves): competitive
effect on Bmax of [3H]5HT uptake [5]: no decrease in Bmax
effect on Kd of [3H]5HT uptake [5]: right shifted
agonist % activity (5HT2C receptor [6]; 1 or 10 mM, threshold 30%): no agonist or antagonist activity
activity at 10 µM (5HT2C receptor [6]; HTR2C, Agonist mode, 10 uM): 3.7%
activity at 1 µM (5HT2C receptor [6]; HTR2C, Agonist, 1 uM): 1.4%

Source: patent publication US12343326B2, “Psychoactive medicines and their use for treating psychiatric and neurological conditions and disorders” (Transcend Therapeutics, Inc., priority 2021, dated 2025)
